The values that follow come from article doi:10.1101/2025.07.11.664310v1 (biorxiv, 2025).

As usually defined, the IC50 is the concentration at which inhibition is half-maximal.

In one experiment the target is hOGG1 (Homo sapiens, UniProt O15527). Briefly: Cas12a-coupled fluorescence assay, 8-oxoG DNA hairpin transducer. Format: biochemical.
The target of a further experiment is T1, Fpg (Escherichia coli, UniProt P05523).
T1 sequence (P05523 2-269): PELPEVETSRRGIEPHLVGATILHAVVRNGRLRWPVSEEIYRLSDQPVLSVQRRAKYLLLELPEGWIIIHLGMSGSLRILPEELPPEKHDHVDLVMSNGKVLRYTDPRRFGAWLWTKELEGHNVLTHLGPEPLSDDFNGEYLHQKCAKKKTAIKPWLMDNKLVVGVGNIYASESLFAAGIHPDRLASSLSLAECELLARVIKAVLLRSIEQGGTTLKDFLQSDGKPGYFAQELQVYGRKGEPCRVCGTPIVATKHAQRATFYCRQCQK
Described as above. It is filed as biochemical.

hOGG1, sequence (O15527 whole entry): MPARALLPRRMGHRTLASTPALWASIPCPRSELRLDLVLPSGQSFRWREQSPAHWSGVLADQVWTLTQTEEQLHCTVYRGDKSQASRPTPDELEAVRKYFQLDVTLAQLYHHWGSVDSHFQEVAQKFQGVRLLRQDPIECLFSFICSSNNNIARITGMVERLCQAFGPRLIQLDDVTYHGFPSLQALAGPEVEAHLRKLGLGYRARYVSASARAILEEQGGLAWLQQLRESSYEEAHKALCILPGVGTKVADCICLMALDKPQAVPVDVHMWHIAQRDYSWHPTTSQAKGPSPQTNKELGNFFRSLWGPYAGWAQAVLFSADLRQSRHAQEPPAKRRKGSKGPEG

`NNC(=O)c1sc2cccc(Cl)c2c1Cl` [Inh#1, O8] showed an IC50 on hOGG1 of 2.5 ± 0.5 µM.

Regarding `O=c1[nH]c2[nH]c(=S)[nH]c(=O)c2[nH]1` [Inh#4, Mercapto-6,8-purinediol], the IC50 against Fpg came to 70.3 ± 0.7 µM; on hOGG1, 11.9 ± 0.4 µM.
